Measurements published in patent US10597388B2, “Pyridazinone herbicides” (FMC CORPORATION, priority 2014, dated 2020).

Experiments:
Type in all cases: in vivo
[1] = system: oilseed rape (Brassica napus); experiment: Test C greenhouse herbicide test, pre- and postemergence
Procedure, shortened: (§1)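 Preemergence: seeds sown in a loam soil–sand blend and sprayed with test chemicals in a non-phytotoxic solvent mixture containing surfactant. Postemergence: plants grown in peat-based medium and treated at 2 to 18 cm (1- to 4-leaf stage). After 13 to 15 d in a greenhouse, injury was visually rated 0–100 against controls.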

[2] = system: morningglory (Ipomoea coccinea); experiment: as above
Procedure, shortened: as §1

[3] = system: wheat (winter wheat, Triticum aestivum); experiment: as above
Procedure, shortened: as §1

corn (Zea mays) = experiment: as above
Procedure, shortened: as §1

[4] = system: crabgrass, large (large crabgrass, Digitaria sanguinalis); experiment: as above
Procedure, shortened: as §1

[5] = system: johnsongrass (Sorghum halepense); experiment: as above
Procedure, shortened: as §1

[6] = system: ragweed (common ragweed, Ambrosia elatior); experiment: as above
Procedure, shortened: as §1

soybean (Glycine max) = experiment: as above
Procedure, shortened: as §1

[7] = system: ryegrass, Italian (Italian ryegrass, Lolium multiflorum); experiment: as above
Procedure, shortened: as §1

[8] = system: foxtail, giant (giant foxtail, Setaria faberii); experiment: as above
Procedure, shortened: as §1

[9] = system: lambsquarters (Chenopodium album); experiment: as above
Procedure, shortened: as §1

[10] = system: blackgrass (Alopecurus myosuroides); experiment: as above
Procedure, shortened: as §1

[11] = system: waterhemp (common waterhemp, Amaranthus rudis); experiment: as above
Procedure, shortened: as §1

[12] = system: pigweed (Amaranthus retroflexus); experiment: as above
Procedure, shortened: as §1

kochia (Kochia scoparia) = experiment: Test C greenhouse herbicide test, postemergence
Source text: At the same time, plants selected from these crop and weed species and also chickweed (common chickweed, Stellaria media), kochia (Kochia scoparia), and oat, wild (wild oat, Avena fatua), were planted in pots containing Redi-Earth® planting medium (Scotts Company, 14111 Scottslawn Road, Marysville, Ohio 43041) comprising spaghnum peat moss, vermiculite, wetting agent and starter nutrients and treated with postemergence applications of test chemicals formulated in the same manner. Plants ranged in height from 2 to 18 cm (1- to 4-leaf stage) for postemergence treatments. Treated plants and controls were maintained in a greenhouse for 13 to 15 d, after which time all species were compared to controls and visually evaluated. Plant response ratings, summarized in Table C, are based on a scale of 0 to 100 where 0 is no effect and 100 is complete control. A dash (-) response means no test result.

[13] = Postemergence, 31 g ai/ha, 0 to 100 scale (0 no effect, 100 complete control)
[14] = Postemergence, 125 g ai/ha, scale 0 to 100, 0 is no effect, 100 is complete control
[15] = Postemergence, 250 g ai/ha, scale 0 to 100, 0 no effect, 100 complete control, 13 to 15 d
[16] = postemergence, 62 g ai/ha, scale 0 to 100, 0 no effect, 100 complete control

CC(=O)Oc1c(C)nn(C)c(=O)c1-c1c(C)oc2c(C)cc(C)cc12 [Compound 16, 5-(acetyloxy)-2,6-dimethyl-4-(2,5,7-trimethyl-3-benzofuranyl)-3(2H)-pyridazinone]
5: Crabgrass, Large plant response rating [4, 13] | Plant response rating, Johnsongrass [5, 15] | Plant response rating, Blackgrass [10, 14] | Blackgrass plant response rating [10, 16] | Waterhemp plant response rating [11, 13] | Plant response rating, Waterhemp [11, 14] | Plant response rating, Waterhemp [11, 15] | Waterhemp plant response rating [11, 16]
55: Foxtail, Giant plant response rating [8, 13]
80: Plant response rating, Foxtail, Giant [8, 15]
45: Morningglory plant response rating [2, 13]
60: Plant response rating, Morningglory [2, 14] | Plant response rating, Ryegrass, Italian [7, 14] | Foxtail, Giant plant response rating [8, 16] | Lambsquarters plant response rating [9, 16]
20: Plant response rating, Crabgrass, Large [4, 14] | Crabgrass, Large plant response rating [4, 16] | Plant response rating, Lambsquarters [9, 15] | Plant response rating, Kochia (kochia (Kochia scoparia); [14])
30: Plant response rating, Crabgrass, Large [4, 15] | Plant response rating, Ragweed [6, 15] | Plant response rating, Pigweed [12, 14] | Pigweed plant response rating [12, 16]
0: Oilseed Rape plant response rating [1, 13] | Plant response rating, Oilseed Rape [1, 15] | Oilseed Rape plant response rating [1, 16] | Wheat plant response rating [3, 13] | Plant response rating, Wheat [3, 14] | Plant response rating, Wheat [3, 15] | Wheat plant response rating [3, 16] | Corn plant response rating (corn (Zea mays); [13]) | Plant response rating, Corn (corn (Zea mays); [14]) | Plant response rating, Corn (corn (Zea mays); [15]) | Corn plant response rating (corn (Zea mays); [16]) | Johnsongrass plant response rating [5, 13] | Plant response rating, Johnsongrass [5, 14] | Johnsongrass plant response rating [5, 16] | Ragweed plant response rating [6, 13] | Plant response rating, Ragweed [6, 14] | Ragweed plant response rating [6, 16] | Soybean plant response rating (soybean (Glycine max); [13]) | Plant response rating, Soybean (soybean (Glycine max); [14]) | Plant response rating, Soybean (soybean (Glycine max); [15]) | Soybean plant response rating (soybean (Glycine max); [16]) | Blackgrass plant response rating [10, 13] | Kochia plant response rating (kochia (Kochia scoparia); [13]) | Kochia plant response rating (kochia (Kochia scoparia); [16])
10: Plant response rating, Oilseed Rape [1, 14] | Ryegrass, Italian plant response rating [7, 13] | Lambsquarters plant response rating [9, 13]
40: Plant response rating, Morningglory [2, 15] | Plant response rating, Lambsquarters [9, 14] | Plant response rating, Blackgrass [10, 15] | Pigweed plant response rating [12, 13]
70: Plant response rating, Ryegrass, Italian [7, 15] | Plant response rating, Foxtail, Giant [8, 14]
50: Morningglory plant response rating [2, 16] | Ryegrass, Italian plant response rating [7, 16] | Plant response rating, Pigweed [12, 15]
25: Plant response rating, Kochia (kochia (Kochia scoparia); [15])

CC(=O)Oc1c(C)nn(C)c(=O)c1-c1c(C)oc2ccc(C)cc12 [Compound 14, 5-(acetyloxy)-4-(2,5-dimethyl-3-benzofuranyl)-2,6-dimethyl-3(2H)-pyridazinone]
0: Oilseed Rape plant response rating [1, 13] | Plant response rating, Oilseed Rape [1, 14] | Plant response rating, Oilseed Rape [1, 15] | Oilseed Rape plant response rating [1, 16] | Wheat plant response rating [3, 13] | Wheat plant response rating [3, 16] | Corn plant response rating (corn (Zea mays); [13]) | Plant response rating, Corn (corn (Zea mays); [14]) | Corn plant response rating (corn (Zea mays); [16]) | Johnsongrass plant response rating [5, 13] | Plant response rating, Johnsongrass [5, 14] | Johnsongrass plant response rating [5, 16] | Soybean plant response rating (soybean (Glycine max); [13]) | Soybean plant response rating (soybean (Glycine max); [16]) | Blackgrass plant response rating [10, 13] | Blackgrass plant response rating [10, 16]
60: Ryegrass, Italian plant response rating [7, 16]
15: Ragweed plant response rating [6, 13]
10: Waterhemp plant response rating [11, 16]
45: Foxtail, Giant plant response rating [8, 16]
50: Plant response rating, Ragweed [6, 14] | Plant response rating, Foxtail, Giant [8, 14] | Plant response rating, Foxtail, Giant [8, 15] | Plant response rating, Waterhemp [11, 14]
70: Plant response rating, Pigweed [12, 14] | Pigweed plant response rating [12, 16]
40: Ryegrass, Italian plant response rating [7, 13] | Plant response rating, Waterhemp [11, 15]
35: Plant response rating, Crabgrass, Large [4, 15]
55: Pigweed plant response rating [12, 13]
20: Foxtail, Giant plant response rating [8, 13] | Plant response rating, Blackgrass [10, 15]
90: Ragweed plant response rating [6, 16] | Plant response rating, Lambsquarters [9, 15] | Plant response rating, Pigweed [12, 15] | Plant response rating, Kochia (kochia (Kochia scoparia); [14]) | Plant response rating, Kochia (kochia (Kochia scoparia); [15])
80: Lambsquarters plant response rating [9, 13] | Plant response rating, Lambsquarters [9, 14] | Lambsquarters plant response rating [9, 16]
5: Plant response rating, Wheat [3, 14] | Plant response rating, Wheat [3, 15] | Plant response rating, Corn (corn (Zea mays); [15]) | Crabgrass, Large plant response rating [4, 13] | Crabgrass, Large plant response rating [4, 16] | Plant response rating, Johnsongrass [5, 15] | Plant response rating, Soybean (soybean (Glycine max); [14]) | Plant response rating, Soybean (soybean (Glycine max); [15]) | Plant response rating, Blackgrass [10, 14] | Waterhemp plant response rating [11, 13]
65: Morningglory plant response rating [2, 13] | Plant response rating, Ryegrass, Italian [7, 14]
100: Plant response rating, Morningglory [2, 14] | Plant response rating, Morningglory [2, 15]
98: Plant response rating, Ragweed [6, 15]
85: Morningglory plant response rating [2, 16] | Plant response rating, Ryegrass, Italian [7, 15] | Kochia plant response rating (kochia (Kochia scoparia); [13]) | Kochia plant response rating (kochia (Kochia scoparia); [16])
30: Plant response rating, Crabgrass, Large [4, 14]
